Patent US11000033B2, “Ketone or oxime compound, and herbicide” (NISSAN CHEMICAL CORPORATION, priority 2014, dated 2021)

Assays:
Type in all cases: in vivo
[1] = system: Echinochloa crus-galli var. crus-galli; test: Test Example 5: herbicidal effect by foliage application, plastic box (symbol H); settings: 320 g/ha, 3 weeks after application
How it was run: (§1)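 Post-emergence spray; diluvial soil (sterilized), ~1.5 cm seed cover; greenhouse 25–30° C; 14-day-old plants; water-diluted emulsion at predetermined dose; visual score at 3 wk post-treatment.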

Chenopodium album = test: Test Example 5: herbicidal effect by foliage application, plastic box (symbol O); settings: 320 g/ha, 3 weeks after application
How it was run: as §1

Scirpus juncoides [2] = test: Test Example 1: herbicidal activity, application before weed generation in submerged conditions (symbol B); settings: application herbicide amount 320 g/ha
How it was run: (§2)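 Weed control was rated three weeks after treatment on a 0–5 scale, from 5% or lower up to 90% or more. Pre-emergence water-surface application of diluted emulsion at a predetermined rate was made on the day of sowing, in flooded (4 cm water) pots containing rice seedlings, kept at 25–30 °C under glass.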

Scirpus juncoides [3] = test: Test Example 2: herbicidal activity, application during weed generation in submerged conditions (symbol B); settings: Table 23; application herbicide amount 320 g/ha; grade 0-5 by criteria of Test Example 1
How it was run: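 Submerged alluvial soil (4 cm) sown with mixed seed; greenhouse 25–30° C. 1–2 leaf: diluted emulsion onto water surface, preset dose. Visual score, 3 wk.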

transplanted rice plant = test: Test Example 1: effect on crop, application before weed generation in submerged conditions (symbol a); settings: application herbicide amount 320 g/ha
How it was run: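 Rice at 2.5 leaf stage transplanted into submerged soil (4 cm depth) sown with three weed species; herbicide applied before weed emergence.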

Leptochloa chinensis = test: Test Example 3: herbicidal effect by foliage application, Wagner pot (symbol D); settings: application herbicide amount 320 g/ha
How it was run: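 Steps: fill pot with alluvial soil; add water to 0.1–0.5 cm depth; sow weed and rice seed; grow 14 days at 25–30 °C; spray diluted emulsion over the leaves; rate effect after 3 weeks.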

rapeseed = test: Test Example 5: effect on crop by foliage application, plastic box (symbol g); settings: 320 g/ha, 3 weeks after application
How it was run: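 In a plastic box 7 cm deep filled with sterilized diluvial soil, seeds of crops and weeds such as Digitaria ciliaris, Avena fatua and Amaranthus retroflexus are sown in spots and covered with about 1.5 cm of soil before greenhouse growth at 25–30° C.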

Monochoria vaginalis = test: Test Example 1: herbicidal activity, application before weed generation in submerged conditions (symbol C); settings: application herbicide amount 320 g/ha
How it was run: as §2

beet = test: Test Example 4: effect on crop by soil treatment (symbol f); settings: for f: beet, effect grade on crop: 320 g/ha
How it was run: (§3)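 Plants are raised in a greenhouse (25° C. to 30° C.) from spot-sown seed, which sits under about 1.5 cm of sterilized diluvial soil in a box shared with weed species.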

soybean = test: Test Example 4: effect on crop by soil treatment (symbol d); settings: for d: soybean, effect grade on crop: 320 g/ha
How it was run: as §3

[4] = application herbicide amount 320 g/ha

| SMILES | H: Echinochloa crus-galli var. crus-galli, herbicidal effect (criteria 0-5) [1] | O: Chenopodium album, herbicidal effect (criteria 0-5) (Chenopodium album) | Herbicidal effect grade, B: Scirpus juncoides (Scirpus juncoides [2]) | Herbicidal effect grade, B: Scirpus juncoides (Scirpus juncoides [3]) | Effect grade on crop, a: transplanted rice plant (transplanted rice plant) | herbicidal effect on D (Leptochloa chinensis), grade 0-5 (Leptochloa chinensis) | g: rapeseed, effect on crop (criteria 0-5) (rapeseed) | Herbicidal effect grade, C: Monochoria vaginalis (Monochoria vaginalis) | f: beet, effect grade on crop (beet) | d: soybean, effect grade on crop (soybean) | H: Echinochloa crus-galli var. crus-galli, herbicidal effect grade [1] | O: Chenopodium album, herbicidal effect grade (Chenopodium album) | g: rapeseed, effect on crop grade (rapeseed) | f (beet) effect on crop grade (beet; [4]) | d (soybean) effect on crop grade (soybean; [4]) | D (Leptochloa chinensis) herbicidal effect grade (Leptochloa chinensis; Table 24) | Effect on crop grade, f: beet (beet; [4]) | Effect on crop grade, d: soybean (soybean; [4]) |
| --- | --- | --- | --- | --- | --- | --- | --- | --- | --- | --- | --- | --- | --- | --- | --- | --- | --- | --- |
| CON=C(C)CC1CC(OC(=O)C2=C(Br)CCC2)=C(c2c(C)cc(C)cc2C)C1=O (stereo not shown) [1-089] | 5 (Herbicidal ratio of 90% or more (almost completely withered)) | 1 (Herbicidal ratio of 5% or higher and lower than 20%) | 5 (Herbicidal ratio of 90% or more (almost completely withered)) | 4 (Herbicidal ratio of 70% or higher and lower than 90%) | 5 (Herbicidal ratio of 90% or more (almost completely withered)) | 5 (Herbicidal ratio of 90% or more (almost completely withered)) | 4 (Herbicidal ratio of 70% or higher and lower than 90%) | 3 (Herbicidal ratio of 40% or higher and lower than 70%) | 0 (Herbicidal ratio of 5% or lower (almost no effect)) | 0 (Herbicidal ratio of 5% or lower (almost no effect)) |  |  |  |  |  |  |  |  |
| CCC(CC1CC(O)=C(c2c(C)cc(C)cc2C)C1=O)=NOC (stereo not shown) [1-038] |  |  | 5 (Herbicidal ratio of 90% or more (almost completely withered)) | 5 (Herbicidal ratio of 90% or more (almost completely withered)) | 5 (Herbicidal ratio of 90% or more (almost completely withered)) | 5 (Herbicidal ratio of 90% or more (almost completely withered)) |  | 3 (Herbicidal ratio of 40% or higher and lower than 70%) |  |  | 5 (Herbicidal ratio of 90% or more (almost completely withered)) | 0 (Herbicidal ratio of 5% or lower (almost no effect)) | 4 (Herbicidal ratio of 70% or higher and lower than 90%) | 0 (Herbicidal ratio of 5% or lower (almost no effect)) | 1 (Herbicidal ratio of 5% or higher and lower than 20%) |  |  |  |
| CON=C(C)CC1CC(OC(=O)C(C)Oc2ccc(Oc3cnc4cc(Cl)ccc4n3)cc2)=C(c2c(C)cc(C)cc2C)C1=O (stereo not shown) [1-087] | 5 (Herbicidal ratio of 90% or more (almost completely withered)) | 0 (Herbicidal ratio of 5% or lower (almost no effect)) | 5 (Herbicidal ratio of 90% or more (almost completely withered)) | 5 (Herbicidal ratio of 90% or more (almost completely withered)) | 5 (Herbicidal ratio of 90% or more (almost completely withered)) | 5 (Herbicidal ratio of 90% or more (almost completely withered)) | 4 (Herbicidal ratio of 70% or higher and lower than 90%) | 1 (Herbicidal ratio of 5% or higher and lower than 20%) | 4 (Herbicidal ratio of 70% or higher and lower than 90%) | 2 (Herbicidal ratio of 20% or higher and lower than 40%) |  |  |  |  |  |  |  |  |
| CON=C(C)CC1CC(OC(=O)COc2ccc3ccccc3c2)=C(c2c(C)cc(C)cc2C)C1=O (stereo not shown) [1-083] | 5 (Herbicidal ratio of 90% or more (almost completely withered)) | 0 (Herbicidal ratio of 5% or lower (almost no effect)) | 4 (Herbicidal ratio of 70% or higher and lower than 90%) | 4 (Herbicidal ratio of 70% or higher and lower than 90%) | 5 (Herbicidal ratio of 90% or more (almost completely withered)) | 5 (Herbicidal ratio of 90% or more (almost completely withered)) | 4 (Herbicidal ratio of 70% or higher and lower than 90%) | 1 (Herbicidal ratio of 5% or higher and lower than 20%) | 0 (Herbicidal ratio of 5% or lower (almost no effect)) | 1 (Herbicidal ratio of 5% or higher and lower than 20%) |  |  |  |  |  |  |  |  |
| C=CC(CC1CC(O)=C(c2c(C)cc(C)cc2C)C1=O)=NOC (stereo not shown) [1-086] | 5 (Herbicidal ratio of 90% or more (almost completely withered)) | 0 (Herbicidal ratio of 5% or lower (almost no effect)) | 0 (Herbicidal ratio of 5% or lower (almost no effect)) | 0 (Herbicidal ratio of 5% or lower (almost no effect)) | 3 (Herbicidal ratio of 40% or higher and lower than 70%) | 4 (Herbicidal ratio of 70% or higher and lower than 90%) | 3 (Herbicidal ratio of 40% or higher and lower than 70%) | 0 (Herbicidal ratio of 5% or lower (almost no effect)) | 0 (Herbicidal ratio of 5% or lower (almost no effect)) | 0 (Herbicidal ratio of 5% or lower (almost no effect)) |  |  |  |  |  |  |  |  |
| CON=C(C)CC1CC(OC(=O)C2=CCCC2)=C(c2c(C)cc(C)cc2C)C1=O (stereo not shown) [1-088] | 5 (Herbicidal ratio of 90% or more (almost completely withered)) | 2 (Herbicidal ratio of 20% or higher and lower than 40%) | 5 (Herbicidal ratio of 90% or more (almost completely withered)) | 5 (Herbicidal ratio of 90% or more (almost completely withered)) | 5 (Herbicidal ratio of 90% or more (almost completely withered)) | 5 (Herbicidal ratio of 90% or more (almost completely withered)) | 4 (Herbicidal ratio of 70% or higher and lower than 90%) | 0 (Herbicidal ratio of 5% or lower (almost no effect)) | 0 (Herbicidal ratio of 5% or lower (almost no effect)) | 0 (Herbicidal ratio of 5% or lower (almost no effect)) |  |  |  |  |  |  |  |  |
| CON=C(CC1CC(O)=C(c2c(C)cc(-n3cc(Cl)cn3)cc2C)C1=O)C(C)C (stereo not shown) [9-004] |  |  | 2 (Herbicidal ratio of 20% or higher and lower than 40%) | 2 (Herbicidal ratio of 20% or higher and lower than 40%) | 5 (Herbicidal ratio of 90% or more (almost completely withered)) |  |  | 0 (Herbicidal ratio of 5% or lower (almost no effect)) |  |  | 5 (Herbicidal ratio of 90% or more (almost completely withered)) | 1 (Herbicidal ratio of 5% or higher and lower than 20%) | 3 (Herbicidal ratio of 40% or higher and lower than 70%) |  |  | 5 (Herbicidal ratio of 90% or more (almost completely withered)) | 0 (Herbicidal ratio of 5% or lower (almost no effect)) | 0 (Herbicidal ratio of 5% or lower (almost no effect)) |
